Results taken from patent US20180028480A1, “METHODS OF REDUCING OR PREVENTING OXIDATIVE MODIFICATION OF MEMBRANE POLYUNSATURATED FATTY ACIDS” (Amarin Pharmaceuticals Ireland Limited, priority 2015, published 2018).

Columns and labels:
[1] = system: lipid vesicles enriched with PUFAs and cholesterol; assay: Glucose-induced membrane lipid peroxidation (LOOH) in DLPC/cholesterol multilamellar vesicles (Example 4); type: biochemical; settings: for effect on LOOH formation / lipid peroxidation: 72- and 96-hour time points, 1:30 drug-to-phospholipid mole ratio (FIG. 3)
Protocol: Vitamin E (α-tocopherol) was also purchased from Sigma-Aldrich and prepared in ethanol at 1.0 mM (ε32 3.06×10^4 M^−1 cm^−1 at 294 nm) just prior to experimental use. […] All test compounds were further diluted in ethanol or aqueous buffer as needed. Glucose was prepared in saline buffer (0.5 mM HEPES, 154 mM NaCl, pH 7.3) at 11.0 mM (200 mg/dL). CHOD-iodide color reagent (stock) was prepared, with slight modification, as described by from El-Saadani et al. (J. […] Prior to experimental use, the CHOD reagent was activated by adding 24 μM ethylenediaminetetraacetic acid (EDTA), 20 μM butylated hydroxytoluene (BHT), and 0.2% Triton X-100. Multilamellar vesicles (MLVs) were prepared as binary mixtures of DLPC (1.0 or 2.5 mg total phospholipid per sample) and cholesterol at a fixed cholesterol-to-phospholipid (C/P) mole ratio of 0.6:1. Component lipids (in chloroform) were transferred to 13×100 mm borosilicate culture tubes and combined with vehicle (ethanol) or an equal volume of fatty acid, vitamin E, or ATM stock solutions, each adjusted to achieve desired treatment concentrations. Samples were shell-dried under nitrogen gas and placed under vacuum for 1 h to remove residual solvent. […] Lipid suspensions were then vortexed for 3 min at ambient temperature to form MLVs. All MLV samples were subjected to time-dependent autoxidation by incubating at 37° C. in an uncovered, shaking water bath. This method allows lipid peroxidation to occur gradually without requiring the use of exogenous initiators. Small aliquots (5-100 μL) of each sample were removed, immediately following MLV preparation (0 hour) and after exposing samples to oxidative conditions for 72 or 96 hour, and combined with 1.0 mL of activated CHOD-iodide color reagent. Aliquot volume was reduced with each successive time point to ensure that spectrophotometric readings were within the optimal adsorption range. Test samples were covered and incubated in darkness at room temperature for at least 4 hr. Sample absorbances were then measured against a CHOD blank at 365 nm using a Beckman DU-640 spectrophotometer. The CHOD colorimetric assay is based on the oxidation of iodide (I^−) by lipid hydroperoxide (LOOH) to form triiodide (I3^−), the quantity of which is directly proportional to the amount of LOOH present in the lipid sample. The molar absorptivity (c) of I3^− is 2.46×10^4 M^−1 cm^−1 at 365 nm. […] The concentration of glucose selected was consistent with previous experimental studies of hyperglycemia under controlled laboratory conditions or observed in well-defined animal models of Type II diabetes following a glucose challenge. […] Values in FIG. 1 are mean±S.D. (N=6). […]

unfractionated LDL = assay: Copper-induced oxidation of unfractionated LDL, TBARS (Example 6); type: biochemical, human; settings: 1.0 μM to 10.0 μM
Protocol: All test compounds were further diluted in ethanol or aqueous buffer as needed. Venous blood was collected from healthy volunteers into vacutainer tubes containing sodium EDTA. […] Plasma and lipoprotein fractions were maintained at 4° C. and protected from excessive exposure to light. Prior to oxidation experiments, EDTA was removed from the lipoprotein fraction using PD-10 desalting columns (GE Healthcare, Piscataway N.J.). After equilibration of the column with phosphate buffered saline (PBS), 2.5 mL of the lipoprotein fraction was loaded on the column and the flow-through discarded. The lipoprotein was then eluted with 3 mL of PBS. The LDL fractions were further diluted with PBS to obtain a 100 μg/mL apoB100 concentration. […] Sample TBARS concentrations were determined spectrophotometrically by measuring sample absorbances against a standard curve derived from the hydrolysis of 1,1,3,3-tetramethoxypropane. […] Differences between groups were analyzed using the two-tailed, Student's t-test (for comparisons between only two groups) or ANOVA followed by Dunnett or Student-Newman-Keuls multiple comparisons post-hoc analysis (for comparisons between three or more groups).

SMILES	effect on LOOH formation / lipid peroxidation [1]	LDL oxidation (unfractionated LDL)	antioxidant effect (LOOH formation), separate treatments ([1]; each at 1.0 μM, glucose 200 mg/dL, 96 hours)
Cc1c(C)c2c(c(C)c1O)CC[C@@](C)(CCC[C@H](C)CCC[C@H](C)CCCC(C)C)O2 [vitamin E, α-tocopherol, reference compound]	no significant effect on lipid peroxidation	did not inhibit LDL oxidation at any concentration	–
CC/C=C\C/C=C\C/C=C\C/C=C\C/C=C\CCCC(=O)O [EPA, cis-5,8,11,14,17-Eicosapentaenoic acid]	significantly inhibited LOOH formation	generally inhibit LDL oxidation	separate and potent antioxidant effects
